According to US8357717B2, “Spiro group-containing amide compounds having bradykinin 1 receptor (B1R) activity” (Gruenenthal GmbH, priority 2009, dated 2013):

Tests used:
[1] = target: T1, B1R receptor of the rat (rB1R) (Rattus norvegicus, UniProt P97583); assay: FLIPR Ca2+ functional study on bradykinin receptor 1, rB1R cells (CHO K1); type: cell-based; settings: 10 μM test substance; CHO K1 cells with rat B1R; agonist Des-Arg9-bradykinin at EC80; read-out: B1R antagonism, rat [10 μM] % inhibition
T1 construct: expressed in transfected cells; host or cells: CHO K1 cells, stably transfected
T1 sequence (P97583 1-337): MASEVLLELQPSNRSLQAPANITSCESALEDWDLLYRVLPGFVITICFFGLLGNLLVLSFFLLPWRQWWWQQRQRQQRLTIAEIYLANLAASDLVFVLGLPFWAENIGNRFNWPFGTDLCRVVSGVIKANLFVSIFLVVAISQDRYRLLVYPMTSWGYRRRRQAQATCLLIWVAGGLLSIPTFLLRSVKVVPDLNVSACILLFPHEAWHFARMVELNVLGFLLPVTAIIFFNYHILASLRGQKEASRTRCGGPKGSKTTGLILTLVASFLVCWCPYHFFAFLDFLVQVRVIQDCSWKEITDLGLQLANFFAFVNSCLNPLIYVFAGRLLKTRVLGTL
Experimental: (§1) The agonistic or antagonistic activity of substances can be quantified on the bradykinin receptor 1 (B1R) of the species human and rat using ectopically expressing cell lines (CHO K1 cells) and with the aid of a Ca^2+-sensitive dye (Fluo-4) using a fluorescent imaging plate reader (FLIPR). The indication in % activation is based on the Ca^2+ signal after addition of Lys-Des-Arg^9-bradykinin (0.5 nM) or Des-Arg^9-bradykinin (100 nM). Antagonists lead to suppression of the Ca^2+ influx after the addition of the agonist. % Inhibition compared with the maximum achievable inhibition is indicated.
(§2) The agonistic or antagonistic activity of substances can be determined on the bradykinin receptor 1 (B1R) of the species human and rat using the following assay. According to this assay, the Ca^2+ influx through the channel is quantified with the aid of a Ca^2+-sensitive dye (Fluo-4 type, Molecular Probes Europe BV, Leiden, Netherlands) using a Fluorescent Imaging Plate Reader (FLIPR, Molecular Devices, Sunnyvale, USA).
(§3) Chinese hamster ovary cells (CHO K1 cells) which have been stably transfected with the human B1R gene (hB1R cells) or with the B1R gene of the rat (rB1R cells) are used. For functional studies, the cells are plated out on black 96-well plates having a clear base (BD Biosciences, Heidelberg, Germany or Greiner, Frickenhausen, Germany) in a density of 20,000-35,000 cells/well. The cells are left overnight at 37° C. and with 5% CO2 in culture medium (hB1R cells: Nutrient Mixture Ham's F12, Gibco Invitrogen GmbH, Karlsruhe, Germany or DMEM, Sigma-Aldrich, Taufkirchen, Germany; rB1R cells: D-MEM/F12, Gibco Invitrogen GmbH, Karlsruhe, Germany), with 10 vol. % FBS (fetal bovine serum, Gibco Invitrogen GmbH, Karlsruhe, Germany or PAN Biotech GmbH, Aidenbach, Germany). On the following day, the cells are loaded for 60 minutes at 37° C. with 2.13 μM Fluo-4 (Molecular Probes Europe BV, Leiden, Netherlands) in HBSS buffer (Hank's buffered saline solution, Gibco Invitrogen GmbH, Karlsruhe, Germany) […] (Sigma-Aldrich, Taufkirchen, Germany) and 10 mM HEPES (Sigma-Aldrich, Taufkirchen, Germany). The plates are then washed twice with HBSS buffer, and HBSS buffer additionally containing 0.1% BSA (bovine serum albumin; Sigma-Aldrich, Taufkirchen, Germany), 5.6 mM glucose and 0.05% gelatin (Merck KGaA, Darmstadt, Germany) is added to the plates. After incubation for a further 20 minutes at room temperature, the plates are inserted into the FLIPR for Ca^2+ measurement. Alternatively, washing is carried out with buffer A (15 mM HEPES, 80 mM NaCl, 5 mM KCl, 1.2 mM CaCl2, 0.7 mM MgSO4, 2 g/l glucose, 2.5 mM probenecid) followed by loading with buffer A with added 2.5 μM Fluo-4 and 0.025% Pluronic F127 (Sigma-Aldrich, Taufkirchen, Germany). The cells are then washed twice with buffer A and incubated for 30 minutes at room temperature with buffer A additionally containing 0.05% BSA and 0.05% gelatin and are then inserted into the FLIPR for Ca^2+ measurement. The Ca^2+-dependent fluorescence is measured before and after the addition of substances (λex=488 nm, λem=540 nm). Quantification is carried out by measuring the highest fluorescence intensity (FC, fluorescence counts) over time.
(§4) The FLIPR protocol consists of two substance additions. Test substances (10 μM) are first pipetted onto the cells and the Ca^2+ influx is compared with the control (hB1R: Lys-Des-Arg^9-bradykinin >=50 nM; rB1R: Des-Arg^9-bradykinin 10 μM). This gives the activation in %, based on the Ca^2+ signal after addition of Lys-Des-Arg^9-bradykinin (>=50 nM) or Des-Arg^9-bradykinin (10 μM). After 10-20 minutes' incubation, Lys-Des-Arg^9-bradykinin (hB1R) or Des-Arg^9-bradykinin (rB1R) is applied in the concentration of the EC80, and the influx of Ca^2+ is likewise determined. Antagonists lead to suppression of the Ca^2+ influx. The % inhibition compared with the maximum achievable inhibition is calculated. […]

[2] = target: T2, human B1R receptor (hB1R) (Homo sapiens, UniProt P46663); assay: FLIPR Ca2+ functional study on bradykinin receptor 1, hB1R cells (CHO K1); type: cell-based; settings: CHO-K1, 10 μM test substance; CHO K1 cells with human B1R; agonist Lys-Des-Arg9-bradykinin at EC80; read-out: B1R antagonism, human [10 μM] % inhibition
T2 construct: expressed in transfected cells; host or cells: CHO K1 cells, stably transfected
T2 sequence (P46663 1-353): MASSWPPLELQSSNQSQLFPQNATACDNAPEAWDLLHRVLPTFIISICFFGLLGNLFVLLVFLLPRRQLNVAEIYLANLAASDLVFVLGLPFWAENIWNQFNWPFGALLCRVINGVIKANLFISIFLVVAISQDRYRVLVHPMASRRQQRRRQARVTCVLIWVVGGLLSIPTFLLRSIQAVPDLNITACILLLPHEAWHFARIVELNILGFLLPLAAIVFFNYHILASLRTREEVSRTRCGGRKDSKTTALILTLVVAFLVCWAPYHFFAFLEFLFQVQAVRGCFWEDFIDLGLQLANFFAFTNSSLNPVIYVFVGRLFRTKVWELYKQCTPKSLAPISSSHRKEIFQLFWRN
Experimental: as §1, §2, §3, §4

| Compound | inhibition at 10 µM [1] | inhibition at 10 µM [2] |
| --- | --- | --- |
| COc1cc(C)c(S(=O)(=O)N2CCCc3ccc(CC(=O)N4CCC5(CCC(Oc6ccncc6)CC5)CC4)cc32)c(C)c1 [Compound G-30, 2-(1-(4-Methoxy-2,6-dimethylphenylsulfonyl)-1,2,3,4-tetrahydroquinolin-7-yl)-1-(9-(pyridin-4-yloxy)-3-azaspiro[5.5]undecan-3-yl)ethanone] | 98% | 46% |
| COc1cc(C)c(S(=O)(=O)N2CCCc3ccc(CC(=O)N4CCC5(CCC(N6CCC6)CC5)CC4)cc32)c(C)c1 [Compound G-32, 1-(9-(Azetidin-1-yl)-3-azaspiro[5.5]undecan-3-yl)-2-(1-(4-methoxy-2,6-dimethylphenylsulfonyl)-1,2,3,4-tetrahydroquinolin-7-yl)ethanone] | 102% | 91% |
| COc1cc(C)c(S(=O)(=O)N2CCCc3ccc(CC(=O)N4CCC5(CC4)CC(c4ccncc4)=NO5)cc32)c(C)c1 [Compound G-33, 2-(1-(4-Methoxy-2,6-dimethylphenylsulfonyl)-1,2,3,4-tetrahydroquinolin-7-yl)-1-(3-(pyridin-4-yl)-1-oxa-2,8-diazaspiro[4.5]dec-2-en-8-yl)ethanone] | 73% | 65% |
| COc1cc(C)c(S(=O)(=O)N2CCCc3ccc(CC(=O)N4CCC5(CCC(N6CC(F)(F)C6)CC5)CC4)cc32)c(C)c1 [Compound G-34, 1-(9-(3,3-Difluoroazetidin-1-yl)-3-azaspiro[5.5]undecan-3-yl)-2-(1-(4-methoxy-2,6-dimethylphenylsulfonyl)-1,2,3,4-tetrahydroquinolin-7-yl)ethanone] | 86% | 18% |
| O=C(Cc1ccc2c(c1)N(S(=O)(=O)c1ccc(OC(F)(F)F)cc1Cl)CCC2)N1CCC2(CC1)CCN(c1ccncc1)CC2 [Compound G-35, 2-(1-(2-Chloro-4-(trifluoromethoxy)phenylsulfonyl)-1,2,3,4-tetrahydroquinolin-7-yl)-1-(9-(pyridin-4-yl)-3,9-diazaspiro[5.5]undecan-3-yl)ethanone] | 101% | 79% |
| COc1cc(C)c(S(=O)(=O)N2CCc3cccc(C(=O)N4CCC5(CC4)CCN(c4ccncc4)CC5)c3C2)c(C)c1 [Compound G-36, (2-(4-Methoxy-2,6-dimethylphenylsulfonyl)-1,2,3,4-tetrahydroisoquinolin-8-yl)(9-(pyridin-4-yl)-3,9-diazaspiro[5.5]undecan-3-yl)methanone] | 99% | 99% |
| Cc1cccc(Cl)c1S(=O)(=O)N1CCc2cccc(C(=O)N3CCC4(CC3)CCN(c3ccncc3)CC4)c2C1 [Compound G-37, (2-(2-Chloro-6-methylphenylsulfonyl)-1,2,3,4-tetrahydroisoquinolin-8-yl)(9-(pyridin-4-yl)-3,9-diazaspiro[5.5]undecan-3-yl)methanone] | 90% | 99% |
| O=C(c1cccc2c1CN(S(=O)(=O)c1cccc(Cl)c1Cl)CC2)N1CCC2(CC1)CCN(c1ccncc1)CC2 [Compound G-38, (2-(2,3-Dichlorophenylsulfonyl)-1,2,3,4-tetrahydroisoquinolin-8-yl)(9-(pyridin-4-yl)-3,9-diazaspiro[5.5]undecan-3-yl)methanone] | 91% | 97% |
| COc1cc(C)c(S(=O)(=O)N2CCc3ccc(CC(=O)N4CCC5(CC4)CCN(c4ccncc4)CC5)cc3C2)c(C)c1 [Compound G-39, 2-(2-(4-Methoxy-2,6-dimethylphenylsulfonyl)-1,2,3,4-tetrahydroisoquinolin-7-yl)-1-(9-(pyridin-4-yl)-3,9-diazaspiro[5.5]undecan-3-yl)ethanone] | 89% | 99% |
| COc1cc(C)c(S(=O)(=O)N2CCn3cc(C(=O)N4CCC5(CC4)CCN(c4ccncc4)CC5)nc3C2)c(C)c1 [Compound G-40, (7-(4-Methoxy-2,6-dimethylphenylsulfonyl)-5,6,7,8-tetrahydroimidazo[1,2-a]pyrazin-2-yl)(9-(pyridin-4-yl)-3,9-diazaspiro[5.5]undecan-3-yl)methanone] | 102% | 100% |
| O=C(/C=C/c1ccccc1Cl)N1CCc2ccc(C(=O)N3CCC4(CC3)CCN(c3ccncc3)CC4)cc2C1 [Compound G-41, 3-(2-Chlorophenyl)-1-(7-(9-(pyridin-4-yl)-3,9-diazaspiro[5.5]undecane-3-carbonyl)-3,4-dihydroisoquinolin-2(1H)-yl)prop-2-en-1-one] | 90% | 99% |
| O=C(c1ccc2c(c1)CN(C(=O)c1ccc(Cl)s1)CC2)N1CCC2(CC1)CCN(c1ccncc1)CC2 [Compound G-42, (5-Chlorothiophen-2-yl)(7-(9-(pyridin-4-yl)-3,9-diazaspiro[5.5]undecane-3-carbonyl)-3,4-dihydroisoquinolin-2(1H)-yl)methanone] | 102% | 100% |
| O=C(Cc1ccccc1Cl)N1CCc2ccc(C(=O)N3CCC4(CC3)CCN(c3ccncc3)CC4)cc2C1 [Compound G-43, 2-(2-Chlorophenyl)-1-(7-(9-(pyridin-4-yl)-3,9-diazaspiro[5.5]undecane-3-carbonyl)-3,4-dihydroisoquinolin-2(1H)-yl)ethanone] | 102% | 99% |
| O=C(c1ccc(Cl)s1)N1CCc2cccc(C(=O)N3CCC4(CC3)CCN(c3ccncc3)CC4)c2C1 [Compound G-44, (5-Chlorothiophen-2-yl)(8-(9-(pyridin-4-yl)-3,9-diazaspiro[5.5]undecane-3-carbonyl)-3,4-dihydroisoquinolin-2(1H)-yl)methanone] | 62% | 99% |
| O=C(NCc1ccccc1Cl)N1CCc2ccc(C(=O)N3CCC4(CC3)CCN(c3ccncc3)CC4)cc2C1 [Compound G-45, N-(2-Chlorobenzyl)-7-(9-(pyridin-4-yl)-3,9-diazaspiro[5.5]undecane-3-carbonyl)-3,4-dihydroisoquinoline-2(1H)-carboxamide] | 97% | 97% |
